US20250304623A1, “PEPTIDES FOR INTRACELLULAR DELIVERY” (UNIVERSIDADE DE SANTIAGO DE COMPOSTELA, priority 2022, published 2025)
Starred links: 1 amine or outer side, 2 acyl side, 3 side chain; linkers in the order of their positions; H or OH if unused. Residues, ends and D or L forms follow the SMILES beside them. Groups on a side chain read outwards from the residue. *: point of attachment. Glutaryl = O=C(CCCC(=O)[*:2])[*:1]; NHNH2 = NN*

Tests used:
Format in all cases: cell-based
ARPE19 cells = experiment: RLuc pDNA delivery, robotic library screening, ARPE19
A549 cells = experiment: RLuc pDNA delivery, robotic library screening, A549
Method: Cells were seeded in a 96 well plate the day before the experiment at a concentration of 60,000 cell/mL (100 μL/w) in DMEM+10% FBS+1% Gln-Abt. For robotic library screening, the delivery of pDNA encoding for the expression of Renilla luciferase gene (RLuc, pRL-CMV (Promega, #E2261)) in six different cell lines was performed. Amphihilic molecule stock solutions in DMSO were diluted with DMEM and freshly mixed with pDNA stock solutions in DMEM prior to transfection experiments, to afford several complexes at different amphiphile concentration (2-10 μM) while maintaining a constant final pDNA concentration of 2 ng/μL. The mixture was shaken for 30 min at room temperature before the addition to the cells. The cell medium was aspirated, and cells were washed twice with PBS. Finally, 50 μL of the complex's solution were added to the cells and incubated for 4 h. After the incubation, the medium was replaced by 100 μL of fresh DMEM supplemented with 10% FBS. 72 hours after transfection the DMEM was removed, cells were washed once with HBSS and 90 μL of HBSS were added to each well. Cells were incubated at 37° C. for 30 minutes. Then basal luminescence levels were read in a plate reader. Immediately, 10 μL of coelenterazine h in HBSS were added to each well (5 μM final concentration) and cells were incubated at 37° C. for 10 minutes. Finally, the total luminescence measurement of the plates was performed. Amphiphile transfection efficiency was compared and normalized to Lipofectamine® 2000 efficiency (value of 1 in Tables 1-5 and 7; bold numbers). All experiments were done in triplicate.
Tables 1-7: RLuc (pDNA) or EGFP (mRNA) expression levels were normalized to Lipofectamine reagents (value=1) and expressed as fold-times signal increase. In the case of siRNA, the siRNA treated cells fluorescence was compared with siMOCK control fluorescence, while Cas9-RNP mediated knockout was measured against the fluorescence of untreated cells. In both siRNA and Cas9-RNP, values are expressed as % fluorescence reduction. Amphiphile concentration was 5 μM in all cases. All experiments were performed in triplicate.
Tables 8-13 show the mean (triplicates) luminescent intensity (RLU) measured after the transfection of RLuc pDNA by different amphiphiles at different concentrations in a variety of cell lines. Background luminescence values, accounted by untransfected control cells, were subtracted for processing.

[1] = tested on: HepG2 cells expressing EGFP; experiment: Cas9-RNP delivery against EGFP (gene editing, plate reader), HepG2
Method: To generate an EGFP expressing HeLa cell line, HeLa cells were transfected with EGFP pDNA (pEGFP-C1, Clontech) and stable transfectants were selected with 400 μg/mL of G-418 (Millipore). Green clones were selected by epifluorescence microscopy and tested for EGFP expression stability through several passages. […] All other EGFP-expressing cell lines were obtained in a similar way from parent non-EGFP-expressing cell lines.
Cells expressing EGFP were seeded in a 96 well plate the day before the experiment at a concentration of 50,000 cell/mL (100 μL/w) in DMEM+10% FBS+1% Gln-Abt. For robotic library screening, the delivery of Cas9-RNP against EGFP (RNP designed to knock-out the gene encoding for the enhanced green fluorescent protein (EGFP)) was performed. For RNP assembly, 9.2 μL of crRNA and 9.2 μL of tracrRNA were mixed in 211.6 μL of Nuclease-Free Duplex Buffer (IDT), incubated for 5 min at 95° C. and slowly cooled at rt (see I. Lostalé-Seijo, et al. Peptide/Cas9 nanostructures for ribonucleoprotein cell membrane transport and gene edition, Chem. Sci., 2017). Cas9 protein was dissolved in DMEM at a final concentration of 4 μM and equal volumes of the RNA complex and Cas9 were mixed and incubated for 5 min at rt. 75 μL of the corresponding amphiphile concentrations were added to 5 μL of RNP at 2 μM. The mixture was shaken for 30 min at room temperature before the addition to the cells. The cell medium was aspirated, and cells were washed twice with PBS. Cells were covered with 30 μL of DMEM and 20 μL of the RNP/amphiphile complexes were added to the cells (final peptide concentrations=2.5, 5 and 10 μM; final Cas9-RNP concentration=50 nM) and incubated for 4 h. After the incubation, the medium was replaced by 100 μL of fresh DMEM supplemented with 10% FBS. The total EGFP fluorescence was quantified after 72 h in a plate reader (FIG. 2, Table 1 (right) and Table 6). All experiments were done in triplicate. […]
Tables 26-31 show the mean (triplicates) percentage of gene editing, accounted by GFP fluorescence intensity decrease (% of reduction), measured after the transfection of Cas9-RNP by different amphiphiles at different concentrations in a variety of cell lines. Background values, accounted by untreated control cells, were subtracted for processing.

## CC(=O)N[C@@H](CCCNC(=N)N)C(=O)N[C@@H](CCCCNC(=O)CCCC(=O)NN)C(=O)N[C@@H](Cc1c[nH]cn1)C(=O)N[C@@H](CCCNC(=N)N)C(=O)N[C@@H](CCCCNC(=O)CCCC(=O)NN)C(=O)N[C@@H](CCCCNC(=O)CCCC(=O)NN)C(=O)N[C@@H](Cc1c[nH]cn1)C(N)=O [7.3(L-H), Ac-RK*HRK*K*H-NH2] (Ac-RK([Glutaryl-NHNH2])HRK([Glutaryl-NHNH2])K([Glutaryl-NHNH2])H-NH2)
ARPE19 cells; Myristoleyl, 5 μM
  mean luminescent intensity (RLuc pDNA): 34050 RLU
ARPE19 cells; Myristoleyl, 10 μM
  mean luminescent intensity (RLuc pDNA): 40509 RLU
ARPE19 cells; Myristoleyl, 15 μM
  mean luminescent intensity (RLuc pDNA): 13457 RLU
ARPE19 cells; Palmitoleyl, 5 μM
  mean luminescent intensity (RLuc pDNA): 111815 RLU
ARPE19 cells; Palmitoleyl, 10 μM
  mean luminescent intensity (RLuc pDNA): 92487 RLU
ARPE19 cells; Palmitoleyl, 15 μM
  mean luminescent intensity (RLuc pDNA): 55716 RLU
ARPE19 cells; Petroselinyl, 5 μM
  mean luminescent intensity (RLuc pDNA): 79286 RLU
ARPE19 cells; Petroselinyl, 10 μM
  mean luminescent intensity (RLuc pDNA): 77882 RLU
ARPE19 cells; Petroselinyl, 15 μM
  mean luminescent intensity (RLuc pDNA): 15465 RLU
ARPE19 cells; palmitoleyl aldehyde
  pDNA delivery, times better than Lipofectamine 2000: 10 times
ARPE19 cells; petroselinyl aldehyde
  pDNA delivery, times better than Lipofectamine 2000: 7 times
A549 cells; Myristoleyl, 5 μM
  mean luminescent intensity (RLuc pDNA): 184442 RLU
A549 cells; Myristoleyl, 10 μM
  mean luminescent intensity (RLuc pDNA): 147873 RLU
A549 cells; Myristoleyl, 15 μM
  mean luminescent intensity (RLuc pDNA): 31551 RLU
A549 cells; Oleyl, 5 μM
  mean luminescent intensity (RLuc pDNA): 4031 RLU
A549 cells; Palmitoleyl, 5 μM
  mean luminescent intensity (RLuc pDNA): 109148 RLU
A549 cells; Palmitoleyl, 10 μM
  mean luminescent intensity (RLuc pDNA): 140079 RLU
A549 cells; Palmitoleyl, 15 μM
  mean luminescent intensity (RLuc pDNA): 105643 RLU
A549 cells; Petroselinyl, 5 μM
  mean luminescent intensity (RLuc pDNA): 94011 RLU
A549 cells; Petroselinyl, 10 μM
  mean luminescent intensity (RLuc pDNA): 139603 RLU
A549 cells; Petroselinyl, 15 μM
  mean luminescent intensity (RLuc pDNA): 6719 RLU
A549 cells; palmitoleyl or petroselinyl aldehydes
  pDNA delivery, times better than Lipofectamine 2000: 30 times
[1]; Dodecanal, 10 μM
  percentage of gene editing, GFP fluorescence intensity decrease (% of reduction): −28%
[1]; Dodecanal, 15 μM
  percentage of gene editing, GFP fluorescence intensity decrease (% of reduction): −28%
[1]; Myristoleyl, 5 μM
  percentage of gene editing, GFP fluorescence intensity decrease (% of reduction): −16%
[1]; Myristoleyl, 10 μM
  percentage of gene editing, GFP fluorescence intensity decrease (% of reduction): −25%
[1]; Myristoleyl, 15 μM
  percentage of gene editing, GFP fluorescence intensity decrease (% of reduction): −19%
[1]; Oleyl, 5 μM
  percentage of gene editing, GFP fluorescence intensity decrease (% of reduction): −17%
[1]; Oleyl, 10 μM
  percentage of gene editing, GFP fluorescence intensity decrease (% of reduction): −13%
[1]; Oleyl, 15 μM
  percentage of gene editing, GFP fluorescence intensity decrease (% of reduction): −12%
[1]; Palmitoleyl, 5 μM
  percentage of gene editing, GFP fluorescence intensity decrease (% of reduction): −23%
[1]; Palmitoleyl, 10 μM
  percentage of gene editing, GFP fluorescence intensity decrease (% of reduction): −12%
[1]; Palmitoleyl, 15 μM
  percentage of gene editing, GFP fluorescence intensity decrease (% of reduction): −25%
[1]; Petroselinyl, 10 μM
  percentage of gene editing, GFP fluorescence intensity decrease (% of reduction): −20%
